# From patent publication US20060014231A1, “Methods and compositions to promote bone homeostasis” (priority 2004, published 2006)
# “Also recorded” adds a separate entry of the source.
# What was measured:
# [1] = target: T1, NR1H3 (Homo sapiens, UniProt Q13133); experiment: Osteogenic marker mRNA levels in MPCs, Ad-NR1H3+T0901317 (rtRT-PCR); assay type: cell-based; details: Ad-NR1H3+T0901317 (1 μM); up-regulated = 4-fold higher than Ad-eGFP or Ad-luciferase; one or more time points
# T1 construct: amplification of the complete open reading frame from ATG start codon to the stop codon of drugable genes; expressed in transfected cells; host or cells: primary human bone-marrow mesenchymal progenitor cells (MPCs), adenoviral transduction (Ad5-NR1H3 with Ad-hCAR)
# T1 sequence (Q13133 1-447): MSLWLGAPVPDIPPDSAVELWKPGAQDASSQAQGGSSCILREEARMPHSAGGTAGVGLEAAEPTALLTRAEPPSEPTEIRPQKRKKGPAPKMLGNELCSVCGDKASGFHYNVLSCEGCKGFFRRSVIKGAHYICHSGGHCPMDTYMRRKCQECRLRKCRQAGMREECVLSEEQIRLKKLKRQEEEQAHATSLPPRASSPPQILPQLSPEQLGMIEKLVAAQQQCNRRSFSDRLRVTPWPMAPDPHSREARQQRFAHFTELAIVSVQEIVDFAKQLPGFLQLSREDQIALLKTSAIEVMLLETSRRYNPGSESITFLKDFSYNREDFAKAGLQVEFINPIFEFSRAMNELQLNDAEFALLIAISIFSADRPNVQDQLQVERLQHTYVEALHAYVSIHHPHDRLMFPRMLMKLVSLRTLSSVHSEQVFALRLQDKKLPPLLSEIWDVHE
# Experimental: 100,000 MPCs are seeded in each well of a 6 well plate in 2 ml MPC medium, containing 10% FCS. The next day, after incubation at 37° C., 10% CO2 in a humidified incubator, cells are co-infected with AdC15-hCAR (final MOI of 750) and Ad-NR5A2, Ad-NR1H3+T0901317 (1 μM) or Ad-BMP2 (positive control) or Ad-eGFP or Ad-luciferase as negative controls (final MOIs of 1250 and 2500). Cells are incubated at 37° C., 10% CO2 in a humidified incubator for a further six days unless cells are already harvested for RNA isolation. Virus is removed and replaced by 2 ml fresh OS medium (proprietary medium containing 10% FCS). Over the next 3 weeks, medium is refreshed 3 times per 2 weeks. Every other time, medium is refreshed half or completely. Monolayers are harvested at several time points (see FIG. 15), total RNA is harvested and quantified and rtRT-PCRs are run as follows: monolayers are washed with ice cold PBS and harvested by adding SV RNA Lysis Buffer. Total RNA is prepared using the SV Total RNA isolation System (Promega, Cat # Z3100). RNA concentration is measured with the Ribogreen RNA Quantification kit (Molecular Probes, Leiden, The Netherlands, Cat No. R-11490). cDNA synthesis is performed using 20 ng total RNA per reaction using the TaqMan Universal PCR Master Mix, No AmpErase UNG, kit (Applied Biosystems, Warrington, UK, Part number 4324018). For each reverse transcriptase (RT) reaction a minus-RT reaction (negative control: no enzyme included in the reaction) is performed. The real-time reverse transcriptase (rtRT)-PCR reaction is performed with gene specific primers on both cDNA and minus-RT samples, using the SYBR Green PCR Master Mix (Applied Biosystems, Warrington, UK, Part number 4309155). Primers are quality controlled by performing PCR reactions on human genomic DNA and on plasmids containing the cDNA encoded by the gene studied if available. If the quality is unsatisfactory, additional primers are designed or validated primer sets are purchased (ABI). For the normalization of the expression levels a RT-PCR reaction is performed on human P-actin using the Human P-actin kit (Applied Biosystems, Warrington, UK, Part number 4310881E). The following program is run on a real-time PCR apparatus (ABI PRISM 7000 Sequence Detection System): 10 min at 25° C., 30 min at 48° C., 5 min at 95° C.
# Expression levels for osteogenic marker genes are first normalized for beta-actin levels. The resulting data for Ad-BMP2, Ad-NR5A2 and Ad-NR1H3+T0901317 (1 μM) samples are then compared to those of Ad-eGFP or Ad-luciferase negative control samples, harvested at the same time points, for cells infected at the same MOI.
# [2] = tested on: calvarial skull bones (hemicalvaria); experiment: Calvarial skull assay (bone organ culture, weight and histological readout); parameters: species or system CD1 mice
# Experimental: CD1 pups are harvested around birth from CD1 female mice (received from Janvier (Le Genest St Isle, France) when they were 11 days pregnant). Pups are decapitated and the calvarial skull is dissected and split into 2 hemicalvaria. Hemicalvaria are blotted using sterile gauze, weighed and cultured in 24 well plates (MEMalpha or BGJb-Fitton-Jackson medium containing 50 μg/ml L-ascorbic acid (Sigma, A-4034), 5 mM β-glycerophosphate (Sigma, G-9891) and Penicillin-Streptomycin (Invitrogen Cat # 15140-122)). Small molecules (ligands, agonists, antagonists) are tested in at least three-fold at a minimum of 3 concentrations. Each small molecule is added to the medium on day 0 and added again when refreshing the medium (every 2-3 days). Three to 16 days after the start of the experiment, skulls are weighed again after blotting them dry using sterile gauze. The weight difference is calculated, expressed as percent weight change and the mean and standard deviations (SD) are calculated for the triplicate measurements. Data are analyzed using the Student's t-test.
# The formation of new osteoid is analyzed histologically as follows: hemicalvaria are fixed in 10% buffered formalin for at least 2 days, decalcified in 10% EDTA overnight, processed through graded alcohols and embedded in paraffin wax. Three to 10 μm sections are prepared of the calvaria and stained with hematoxylin and eosin (H&E). Healthy cells, dead cells, old and new bone, and collagen are identified by their distinctive morphology and colouring observed after H&E staining. The surfaces taken by these are measured stereologically (μm^2 readout) and termed Osteoblast area, Debris area, Native and New bone area, Collagen area and Total area (sum of the previous 5 areas), respectively. In addition, the thickness (μm readout) is measured at 8 positions, evenly spaced over the section.
# The histological readout of the calvarial skull assay is developed using known osteogenic agents. Hemicalvaria were treated with recombinant human parathyroid hormone (rhPTH).
# T0901317 is added to the culture medium of the dissected hemicalvaria at the day of dissection at several doses (19.5, 78.1 and 313 nM), in fourfold. The concentration of the solvent (vehicle), DMSO, is fixed at a final concentration of 0.05%. The medium, containing T0901317 or vehicle control is refreshed every 2-3 days. Hemicalvaria are harvested 7 days after the initiation of the experiment and subjected to the histological analysis described above.
# [3] = 19.5, 78.1 and 313 nM, 7 days, H&E histology
# [4] = 19.5, 78.1 and 313 nM, 7 days, H&E histology, versus 0.05% DMSO
smiles,measurement,setting,value
O=S(=O)(c1ccccc1)N(CC(F)(F)F)c1ccc(C(O)(C(F)(F)F)C(F)(F)F)cc1 [T0901317],BAP mRNA expression,[1],up-regulated
same,PTHR1 mRNA expression,[1],up-regulated
same,RANKL mRNA expression,[1],up-regulated
same,aromatase mRNA expression,[1],up-regulated
same,osteopontin mRNA expression,[1],up-regulated
same,thickness,[2]; [3],Dose-response activity
same,total area (sum of all areas measured),[2]; [3],Dose-response activity
same,collagen area,[2]; [4],Statistically significant increases
same,new bone area,[2]; [4],Statistically significant increases
same,osteoblast area,[2]; [4],Statistically significant increases; also recorded: Dose-response activity
same,weight change of calvarial skull explants,[2]; figure legends FIG. 17 and FIG. 18,Weight increases
